In patent publication US9556179B2 (BRISTOL-MYERS SQUIBB COMPANY, priority 2012, dated 2017) one finds IC50 data, which are given here for 18 molecules.

pIC50: −log10 of the molar value.

Test [1] concerns the target CK1δ (Homo sapiens (Human), UniProt P48730). Nature of the test: CK1δ kinase assay (Caliper LABCHIP electrophoretic separation of fluoresceinated peptide substrate and product). Type of test: biochemical. To be noted: 200 pM enzyme, 50 μM ATP, 22 hours at room temperature. The essentials: (§1)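 Incubated for twenty-two hours at ambient temperature, then quenched with EDTA and analyzed by electrophoretic separation of unphosphorylated and phosphorylated peptide.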

Test [2] deals with CK1ε (Homo sapiens (Human), UniProt P49674). Nature of the test: CK1ε kinase assay (Caliper LABCHIP electrophoretic separation of fluoresceinated peptide substrate and product). To be noted: 200 pM enzyme, 50 μM ATP, 22 hours at room temperature. Type of test: biochemical. The essentials: as §1
CK1ε, sequence (P49674 whole entry): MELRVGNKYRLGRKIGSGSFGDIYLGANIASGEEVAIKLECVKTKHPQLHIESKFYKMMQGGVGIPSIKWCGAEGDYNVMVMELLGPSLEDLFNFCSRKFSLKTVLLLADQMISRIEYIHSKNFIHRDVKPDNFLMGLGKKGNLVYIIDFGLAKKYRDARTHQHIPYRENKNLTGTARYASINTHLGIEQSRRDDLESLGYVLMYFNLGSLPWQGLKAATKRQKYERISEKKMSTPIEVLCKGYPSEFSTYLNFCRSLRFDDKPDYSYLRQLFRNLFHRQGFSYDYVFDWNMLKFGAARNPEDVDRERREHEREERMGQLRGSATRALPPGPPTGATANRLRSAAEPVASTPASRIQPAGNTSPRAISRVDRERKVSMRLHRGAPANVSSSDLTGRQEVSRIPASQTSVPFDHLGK

CK1δ, sequence (P48730 whole entry): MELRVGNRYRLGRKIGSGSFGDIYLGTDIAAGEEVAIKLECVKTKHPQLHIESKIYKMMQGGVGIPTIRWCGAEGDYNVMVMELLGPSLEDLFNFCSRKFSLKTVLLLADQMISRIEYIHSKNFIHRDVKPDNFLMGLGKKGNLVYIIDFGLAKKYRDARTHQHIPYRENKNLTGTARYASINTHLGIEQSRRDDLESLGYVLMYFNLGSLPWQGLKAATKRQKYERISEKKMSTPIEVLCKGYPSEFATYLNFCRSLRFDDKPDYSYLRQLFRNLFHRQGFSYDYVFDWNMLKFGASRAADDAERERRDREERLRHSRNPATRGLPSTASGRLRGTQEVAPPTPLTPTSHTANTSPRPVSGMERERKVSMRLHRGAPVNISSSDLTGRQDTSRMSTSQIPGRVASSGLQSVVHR

Consider `CC(C)(C)C(=O)Nc1cn2nc(-c3c(-c4ccc(F)cc4)ncn3Cc3ccccc3)ccc2n1` [Compound 275, N-(6-(1-benzyl-4-(4-fluorophenyl)-1H-imidazol-5-yl)imidazo[1,2-b]pyridazin-2-yl)pivalamide], for which the pIC50 is 9.26 in test [1] and 8.37 in test [2].
With `O=C(Nc1cn2nc(-c3c(-c4ccc(F)cc4)ncn3C3CCN(CC(F)(F)F)CC3)ccc2n1)c1ccnc(F)c1` [Compound 35, 2-fluoro-N-(6-(4-(4-fluorophenyl)-1-(1-(2,2,2-trifluoroethyl)piperidin-4-yl)-1H-imidazol-5-yl)imidazo[1,2-6]pyridazin-2-yl)isonicotinamide], the pIC50 in test [1] was 9.28; in test [2] it was 8.14.
The corresponding values for `Cc1nc(-c2ccc(F)cc2)c(-c2ccc3nc(NC(=O)c4cccc(CN5CCCC5)c4)cn3n2)n1C` [Compound 394, N-(6-(4-(4-fluorophenyl)-1,2-dimethyl-1H-imidazol-5-yl)imidazo[1,2-b]pyridazin-2-yl)-3-(pyrrolidin-1-ylmethyl) benzamide] are 8.17 and 7.82.
In the same order, the values of `N#Cc1cccc(-c2cccc(C(=O)Nc3cn4nc(-c5c(-c6ccc(F)cc6)nc6ccccn56)ccc4n3)c2)c1` [Compound 207, 3′-cyano-N-(6-(2-(4-fluorophenyl)imidazo[1,2-a]pyridin-3-yl]imidazo[1,2-b]pyridazin-2-yl)-[1,1′-biphenyl]-3-carboxamide] are 8.63 and 7.74.
In the same order, the values of `O=C(Nc1cn2nc(-c3c(-c4ccc(F)cc4)nc4ccccn34)ccc2n1)c1ccnc2[nH]cnc12` [Compound 213, N-(6-(2-(4-fluorophenyl)imidazo[1,2-a]pyridin-3-yl)imidazo[1,2-b]pyridazin-2-yl)-3H-imidazo[4,5-b] pyridine-7-carboxamide] are 8.79 and 7.76.
`O=C(Nc1cn2nc(-c3c(-c4ccc(F)cc4)nc4n3CCN(C(=O)NC3CC3)C4)ccc2n1)c1ccnc(F)c1` [Compound 483, N-Cyclopropyl-3-(2-(2-fluoroisonicotinamido)imidazo[1,2-b]pyridazin-6-yl)-2-(4-fluorophenyl)-5,6-dihydroimidazo[1,2-a]pyrazine-7(8H)-carboxamide]: the negative-log IC50 (pIC50) in test [1] was 9.40; in test [2] it was 8.41.
As for `O=C(Nc1cn2nc(-c3c(-c4ccc(F)cc4)nc(C4CC4)n3C3CCN(CCC(F)(F)F)CC3)ccc2n1)c1ccnc(F)c1` [Compound 130, N-(6-(2-cyclopropyl-4-(4-fluorophenyl)-1-(1-(3,3,3-trifluoropropyl)piperidin-4-yl)-1H-imidazol-5-yl)imidazo [1,2-b]pyridazin-2-yl)-2-fluoroisonicotinamide], the pIC50 was 8.48 in test [1] and 7.27 in test [2].
In the same order, the values of `NCC(=O)N1CCC(n2cnc(-c3ccc(F)cc3)c2-c2ccc3nc(NC(=O)c4ccnc(F)c4)cn3n2)CC1` [Compound 40, N-(6-(1-(1-(2-aminoacetyl)piperidin-4-yl)-4-(4-fluorophenyl)-1H-imidazol-5-yl)imidazo[1,2-b]pyridazin-2-yl)-2-fluoroisonicotinamide] are 10.07 and 9.01.
The corresponding values for `Cc1nc(-c2ccc(F)cc2)c(-c2ccc3nc(NC(=O)c4ccc(Cl)cc4F)cn3n2)n1C` [Compound 398, 4-chloro-2-fluoro-N-(6-(4-(4-fluorophenyl)-1,2-dimethyl-1H-imidazol-5-yl)imidazo[1,2-b]pyridazin-2-yl) benzamide] are 9.18 and 8.57.
As to `CS(=O)(=O)CC(=O)N1CCC(n2cnc(-c3ccc(F)cc3)c2-c2ccc3nc(NC(=O)c4ccnc(F)c4)cn3n2)CC1` [Compound 58, 2-fluoro-N-(6-(4-(4-fluorophenyl)-1-(1-(2-(methylsulfonyl)acetyl)piperidin-4-yl)-1H-imidazol-5-yl)imidazo[1,2-b]pyridazin-2-yl)isonicotinamide], the pIC50 in test [1] is 9.63; in test [2], 9.34.
The corresponding values for `O=C(Nc1cn2nc(-c3c(-c4ccc(F)cc4)nc(C4CC4)n3C3CCN(S(=O)(=O)C4CC4)CC3)ccc2n1)c1ccnc(F)c1` [Compound 124, N-(6-(2-cyclopropyl-1-(1-(cyclopropylsulfonyl)piperidin-4-yl)-4-(4-fluorophenyl)-1H-imidazol-5-yl)imidazo[1,2-b]pyridazin-2-yl)-2-fluoroisonicotinamide] are 8.43 and 7.57.
`O=C(Nc1cn2nc(-c3c(-c4ccc(F)cc4)ncn3CCN3CCOCC3)ccc2n1)c1ccnc(N2CCOCC2)c1` [Compound 168, N-(6-(4-(4-fluorophenyl)-1-(2-morpholinoethyl)-1H-imidazol-5-yl)imidazo[1,2-b]pyridazin-2-yl)-2-morpholinoisonicotinamide]: the pIC50 in test [1] is 9.96; in test [2] it was 8.76.
The corresponding values for `O=C(Nc1cn2nc(-c3c(-c4ccc(F)cc4)ncn3C3CCN(Cc4c[nH]cn4)CC3)ccc2n1)c1ccnc(F)c1` [Compound 22] are 10.00 and 8.89.
In the same order, the values of `O=C(Nc1cn2nc(-c3c(-c4ccc(F)cc4)ncn3C3CCN(CCC(F)(F)F)CC3)ccc2n1)c1ccnc(F)c1` [Compound 10, 2-fluoro-N-(6-(4-(4-fluorophenyl)-1-(1-(3,3,3-trifluoropropyl)piperidin-4-yl)-1H-imidazol-5-yl)imidazo[1,2-b]pyridazin-2-yl)isonicotinamide] are 9.07 and 8.64.
On to `O=C(Nc1cn2nc(-c3c(-c4ccc(F)cc4)nc4ccccn34)ccc2n1)c1csc(-c2cccnc2)n1` [Compound 188, N-(6-(2-(4-fluorophenyl)imidazo[1,2-a]pyridin-3-yl)imidazo[1,2-b]pyridazin-2-yl)-2-(pyridin-3-yl)thiazole-4-carboxamide], for which the pIC50 was 8.45 in test [1] and 8.01 in test [2].
For `O=C(Nc1cn2nc(-c3c(-c4ccc(F)cc4)ncn3C3CCN(CC4C[C@@H]5CC[C@H]4C5)CC3)ccc2n1)c1ccnc(F)c1` (stereo partly drawn) [Compound 31, N-(6-(1-(1-((1S,4R)-bicyclo[2.2.1]heptan-2-ylmethyl)piperidin-4-yl)-4-(4-fluorophenyl)-1H-imidazol-5-yl)imidazo[1,2-6]pyridazin-2-yl)-2-fluoroisonicotinamide], the pIC50 in test [1] is 9.13; in test [2], 7.95.
In the same order, the values of `O=C(Nc1cn2nc(-c3c(-c4ccc(F)cc4)ncn3C3CCN(C(=O)c4ccon4)CC3)ccc2n1)c1cc(F)nc(F)c1` [Compound 93, 2,6-difluoro-N-(6-(4-(4-fluorophenyl)-1-(1-(isoxazole-3-carbonyl)piperidin-4-yl)-1H-imidazol-5-yl)imidazo[1,2-b]pyridazin-2-yl)isonicotinamide] are 9.41 and 8.61.
Turning to `O=C(Nc1cn2nc(-c3c(-c4ccc(F)cc4)nc4ccc(N5CCOCC5)cn34)ccc2n1)c1ccnc(F)c1` [Compound 452, 2-Fluoro-N-(6-(2-(4-fluorophenyl)-6-morpholinoimidazo[1,2-a]pyridin-3-yl)imidazo[1,2-b]pyridazin-2-yl)isonicotinamide], the pIC50 was 9.52 in test [1] and 8.82 in test [2].

As usually defined, the pIC50 is −log10 of the IC50, conventionally taken in molar units. Lower therefore signals a large IC50.
